For 21 compounds, EC50 results are on record in patent US9593123B2, “Triazolo[4,5-D]pyrimidine derivatives” (Hoffmann-La Roche Inc., priority 2013, dated 2017).

One assay deals with human CB1 receptor (Homo sapiens (Human), UniProt P21554). Nature of the assay: cAMP assay, CHO cells expressing human CB1 receptors. The format is cell-based. Particulars: functional cAMP assay, read-out: CB1 hcAMP EC50. The gist of the method: (§1)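 CHO-hCB1/hCB2 cells, KRB + 1 mM IBMX preincubation 30 min 30 °C; cpd 30 min 30 °C; lysis + TR-FRET cAMP detection, 2 h RT; cAMP from std curve; EC50.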
Chain of human CB1 receptor (P21554 whole entry): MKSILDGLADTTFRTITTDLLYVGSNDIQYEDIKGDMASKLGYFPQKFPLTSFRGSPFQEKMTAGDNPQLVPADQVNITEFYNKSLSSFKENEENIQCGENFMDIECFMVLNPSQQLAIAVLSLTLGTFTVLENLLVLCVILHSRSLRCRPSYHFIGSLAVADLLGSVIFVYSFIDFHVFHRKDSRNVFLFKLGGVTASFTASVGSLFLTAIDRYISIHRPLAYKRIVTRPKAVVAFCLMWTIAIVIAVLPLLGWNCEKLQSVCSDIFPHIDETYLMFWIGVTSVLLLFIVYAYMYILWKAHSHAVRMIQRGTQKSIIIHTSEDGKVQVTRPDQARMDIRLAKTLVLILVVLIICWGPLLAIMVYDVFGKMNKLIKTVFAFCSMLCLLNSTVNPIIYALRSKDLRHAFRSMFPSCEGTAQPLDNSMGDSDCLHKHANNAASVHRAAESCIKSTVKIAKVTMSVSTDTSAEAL

For another assay, the target named is human CB2 receptor (Homo sapiens (Human), UniProt P34972). The experiment in a line: cAMP assay, CHO cells expressing human CB2 receptors. Particulars: functional cAMP assay, read-out: CB2 hcAMP EC50. The format is cell-based. The gist of the method:
as §1

Chain of human CB2 receptor (P34972 whole entry): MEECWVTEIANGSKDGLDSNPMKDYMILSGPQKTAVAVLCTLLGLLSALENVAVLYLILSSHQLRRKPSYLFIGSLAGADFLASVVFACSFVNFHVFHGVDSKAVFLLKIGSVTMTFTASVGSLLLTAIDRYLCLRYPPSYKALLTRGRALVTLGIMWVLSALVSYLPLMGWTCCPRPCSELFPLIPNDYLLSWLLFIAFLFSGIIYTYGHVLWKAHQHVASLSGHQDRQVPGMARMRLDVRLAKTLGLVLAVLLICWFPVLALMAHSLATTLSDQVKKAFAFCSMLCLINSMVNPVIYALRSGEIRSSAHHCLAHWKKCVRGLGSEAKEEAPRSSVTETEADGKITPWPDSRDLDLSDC

As for `COc1ccc(Cn2nnc3c(N4CCC(F)(F)C4)nc(NC(C)(C)C)nc32)cc1` [Example 20, N-tert-Butyl-7-(3,3-difluoropyrrolidin-1-yl)-3-[(4-methoxyphenyl)methyl]triazolo [4,5-d]pyrimidin-5-amine], the concentration for a half-maximal effect (EC50) is above 10000 nM at human CB1 receptor and 20.3 nM at human CB2 receptor.
Turning to `FC(F)(F)COc1nc(N2CCC(F)(F)C2)c2nnn(Cc3ccccc3Cl)c2n1` [Example 40, 3-[(2-Chlorophenyl)methyl]-7-(3,3-difluoropyrrolidin-1-yl)-5-(2,2,2-trifluoroethoxy) triazolo[4,5-d]pyrimidine], the EC50 on human CB1 receptor was above 10000 nM; at human CB2 receptor it was 6.1 nM.
Turning to `Cn1nnnc1Cn1nnc2c(N3CCC(F)(F)C3)nc(NC(C)(C)C)nc21` [Example 25, N-tert-Butyl-7-(3,3-difluoropyrrolidin-1-yl)-3-[(1-methyltetrazol-5-yl)methyl]triazolo [4,5-d]pyrimidin-5-amine], the results for the EC50 on human CB1 receptor and at human CB2 receptor were above 10000 nM and 7.5 nM, respectively.
In the same order, the values of `Cn1nnnc1Cn1nnc2c(N3CC[C@H](O)C3)nc(NC(C)(C)C)nc21` [Example 29, (3S)-1-[5-(tert-Butylamino)-3-[(1-methyltetrazol-5-yl)methyl]triazolo[4,5-d]pyrimidin-7-yl]pyrrolidin-3-ol] are above 10000 nM and 48.6 nM.
For the compound `COc1ccc(Cn2nnc3c(N4CC[C@H](O)C4)nc(NC(C)(C)C)nc32)cc1` [Example 19, (3S)-1-[5-(tert-Butylamino)-3-[(4-methoxyphenyl)methyl]triazolo[4,5-d]pyrimidin-7-yl]pyrrolidin-3-ol], the results for the EC50 at human CB1 receptor and at human CB2 receptor were above 10000 nM and 27.4 nM, respectively.
The corresponding values for `CC1(COc2nc(N3CCC(F)(F)C3)c3nnn(Cc4ccccc4Cl)c3n2)COC1` [Example 50, 3-[(2-Chlorophenyl)methyl]-7-(3,3-difluoropyrrolidin-1-yl)-5-[(3-methyloxetan-3-yl)methoxy]triazolo[4,5-d]pyrimidine] are above 10000 nM and 2.8 nM.
In the case of `Cn1nnnc1Cn1nnc2c(N3CCC(F)(F)C3)nc(OCC(C)(C)C)nc21` [Example 65, 7-(3,3-Difluoropyrrolidin-1-yl)-5-(2,2-dimethylpropoxy)-3-[(1-methyltetrazol-5-yl)methyl]triazolo[4,5-d]pyrimidine], the values for the EC50 on human CB1 receptor and at human CB2 receptor were above 10000 nM and 11.9 nM, respectively.
On to `CC(=O)N[C@H]1CCN(c2nc(NC(C)(C)C)nc3c2nnn3Cc2ccccc2Cl)C1` [Example 97, N-[(3S)-1-[5-(tert-butylamino)-3-[(2-chlorophenyl)methyl]triazolo[4,5-d]pyrimidin-7-yl]pyrrolidin-3-yl]acetamide], for which the figures for the half-maximal effective concentration (EC50) at human CB1 receptor and at human CB2 receptor were above 10000 nM and 38 nM, respectively.
In the same order, the values of `Cc1nonc1Cn1nnc2c(N3CCC(F)(F)C3)nc(OCC(C)(C)C)nc21` [Example 67, 3-[[7-(3,3-Difluoropyrrolidin-1-yl)-5-(2,2-dimethylpropoxy)triazolo[4,5-d]pyrimidin-3-yl]methyl]-4-methyl-1,2,5-oxadiazole] are above 10000 nM and 1.7 nM.
The corresponding values for `C[C@H](Oc1nc(N2CCC(F)(F)C2)c2nnn(Cc3nnnn3C3CC3)c2n1)C(F)(F)F` [Example 76, 3-[(1-Cyclopropyltetrazol-5-yl)methyl]-7-(3,3-difluoropyrrolidin-1-yl)-5-[(2S)-1,1,1-trifluoropropan-2-yl]oxytriazolo[4,5-d]pyrimidine] are above 10000 nM and 17.7 nM.
In the same order, the values of `FC1(F)CCN(c2nc(OC3CCC3)nc3c2nnn3Cc2ccccc2Cl)C1` [Example 48, 3-[(2-Chlorophenyl)methyl]-5-cyclobutyloxy-7-(3,3-difluoropyrrolidin-1-yl)triazolo[4,5-d]pyrimidine] are above 10000 nM and 1.7 nM.
As to `COc1ccc(Cn2nnc3c(N4CC[C@H](NC(C)=O)C4)nc(NC(C)(C)C)nc32)cc1` [Example 21, N-[(3S)-1-[5-(tert-Butylamino)-3-[(4-methoxyphenyl)methyl]triazolo[4,5-d]pyrimidin-7-yl]pyrrolidin-3-yl]acetamide], the EC50 on human CB1 receptor is above 10000 nM; on human CB2 receptor it was 141 nM.
As to `C[C@]1(O)CCN(c2nc(N3CCOCC3)nc3c2nnn3Cc2ncccc2Cl)C1` [Example 34, (3S)-1-[3-[(3-chloropyridin-2-yl)methyl]-5-morpholin-4-yltriazolo[4,5-d]pyrimidin-7-yl]-3-methylpyrrolidin-3-ol], the half-maximal effective concentration (EC50) at human CB1 receptor is above 10000 nM; at human CB2 receptor, 45.3 nM.
Turning to `CC(C)(C)Nc1nc(N2CCC(F)(F)C2)c2nnn(Cc3ccccc3S(C)(=O)=O)c2n1` [Example 23, N-tert-Butyl-7-(3,3-difluoropyrrolidin-1-yl)-3-[(2-methylsulfonylphenyl)methyl]triazolo[4,5-d]pyrimidin-5-amine], the figures for the half-maximal effective concentration (EC50) on human CB1 receptor and at human CB2 receptor were 487 nM and 1.1 nM, respectively.
Turning to `CC(C)(O)COc1nc(N2CCC(F)(F)C2)c2nnn(Cc3ccccc3Cl)c2n1` [Example 58, 1-[3-[(2-Chlorophenyl)methyl]-7-(3,3-difluoropyrrolidin-1-yl)triazolo[4,5-d]pyrimidin-5-yl]oxy-2-methylpropan-2-ol], the results for the EC50 at human CB1 receptor and on human CB2 receptor were above 10000 nM and 15.7 nM, respectively.
The corresponding values for `FC1(F)CCN(c2nc(NC3CCC3)nc3c2nnn3Cc2ccccc2Cl)C1` [Example 11, 3-[(2-Chlorophenyl)methyl]-N-cyclobutyl-7-(3,3-difluoropyrrolidin-1-yl)triazolo[4,5-d]pyrimidin-5-amine] are above 10000 nM and 2.6 nM.
In the same order, the values of `O=S(=O)(Cc1ccccc1)c1nc(N2CCC(F)(F)C2)c2nnn(Cc3ccccc3Cl)c2n1` [Example 87, 5-Benzylsulfonyl-3-[(2-chlorophenyl)methyl]-7-(3,3-difluoropyrrolidin-1-yl)triazolo [4,5-d]pyrimidine] are above 10000 nM and 83 nM.
The corresponding values for `FC1(F)CCN(c2nc(N3CCCC3)nc3c2nnn3Cc2ccccc2Cl)C1` [Example 10, 3-[(2-Chlorophenyl)methyl]-7-(3,3-difluoropyrrolidin-1-yl)-5-pyrrolidin-1-yltriazolo[4,5-d]pyrimidine] are 217 nM and 2.9 nM.
Regarding `FC1(F)CCN(c2nc(C3CCC3)nc3c2nnn3Cc2ccccc2Cl)C1` [Example 1, 3-[(2-Chlorophenyl)methyl]-5-cyclobutyl-7-(3,3-difluoropyrrolidin-1-yl)triazolo[4,5-d]pyrimidine], the concentration for a half-maximal effect (EC50) on human CB1 receptor was above 10000 nM; at human CB2 receptor, 1 nM.
With `C[C@H](Oc1nc(N2CCC(F)(F)C2)c2nnn(Cc3ccccc3Cl)c2n1)C(F)(F)F` [Example 42, 3-[(2-Chlorophenyl)methyl]-7-(3,3-difluoropyrrolidin-1-yl)-5-[(2S)-1,1,1-trifluoropropan-2-yl]oxytriazolo[4,5-d]pyrimidine], the results for the half-maximal effective concentration (EC50) on human CB1 receptor and at human CB2 receptor were above 10000 nM and 3.3 nM, respectively.
For the compound `C#CCOc1nc(N2CCC(F)(F)C2)c2nnn(Cc3ccccc3Cl)c2n1` [Example 56, 3-[(2-Chlorophenyl)methyl]-7-(3,3-difluoropyrrolidin-1-yl)-5-prop-2-ynoxytriazolo [4,5-d]pyrimidine], the concentration giving a half-maximal response (EC50) at human CB1 receptor was above 10000 nM; at human CB2 receptor, 11 nM.
